Measurements as given in the NIST ThermoML archive (doi:10.1016/j.fluid.2015.05.026).
“And” between values parts separate entries of the source, which are not always exact repeats. Equal values may be shown once. ± gives the expanded uncertainty stated by the source.

How the values were obtained:
[1] = Liquid, Closed cell (Static) method
[2] = molar heat capacity at constant pressure; conditions: 101.33 kPa, Liquid, Large sample (1 g) DSC

| SMILES | vapor or sublimation pressure ([1]; 253.15 K) | vapor or sublimation pressure ([1]; 258.15 K) | vapor or sublimation pressure ([1]; 263.15 K) | vapor or sublimation pressure ([1]; 268.15 K) | vapor or sublimation pressure ([1]; 273.15 K) | vapor or sublimation pressure ([1]; 273.65 K) | vapor or sublimation pressure ([1]; 278.15 K) | vapor or sublimation pressure ([1]; 283.15 K) | vapor or sublimation pressure ([1]; 288.15 K) | vapor or sublimation pressure ([1]; 293.15 K) | vapor or sublimation pressure ([1]; 298.15 K) | vapor or sublimation pressure ([1]; 303.15 K) | vapor or sublimation pressure ([1]; 308.15 K) | molar heat capacity at constant pressure ([2]; 265 K) | molar heat capacity at constant pressure ([2]; 270 K) | molar heat capacity at constant pressure ([2]; 275 K) | molar heat capacity at constant pressure ([2]; 280 K) | molar heat capacity at constant pressure ([2]; 285 K) | molar heat capacity at constant pressure ([2]; 290 K) | molar heat capacity at constant pressure ([2]; 295 K) | other results |
| --- | --- | --- | --- | --- | --- | --- | --- | --- | --- | --- | --- | --- | --- | --- | --- | --- | --- | --- | --- | --- | --- |
| CCCCCCO [hexan-1-ol] | 0.001054 ± 0.00015 kPa and 0.001051 ± 0.00015 kPa and 0.001057 ± 0.00015 kPa | 0.001918 ± 0.00016 kPa and 0.001915 ± 0.00016 kPa and 0.00192 ± 0.00016 kPa | 0.003393 ± 0.0002 kPa and 0.003385 ± 0.0002 kPa | 0.005838 ± 0.00028 kPa and 0.005843 ± 0.00028 kPa and 0.005839 ± 0.00028 kPa | 0.009866 ± 0.00042 kPa and 0.009857 ± 0.00042 kPa | 0.01039 ± 0.00044 kPa | 0.01629 ± 0.00058 kPa and 0.0163 ± 0.0006 kPa | 0.02639 ± 0.00076 kPa and 0.02642 ± 0.00076 kPa | 0.04189 ± 0.001 kPa and 0.0419 ± 0.001 kPa | 0.06536 ± 0.0014 kPa and 0.06537 ± 0.0014 kPa | 0.1001 ± 0.0021 kPa | 0.1505 ± 0.0026 kPa | 0.223 ± 0.004 kPa and 0.223 ± 0.0035 kPa and 0.2231 ± 0.0035 kPa |  |  |  |  |  |  |  | vapor or sublimation pressure ([1]; 237.95 K): 0.000143 ± 0.00013 kPa; vapor or sublimation pressure ([1]; 238 K): 0.000143 ± 0.00013 kPa and 0.000145 ± 0.00013 kPa; vapor or sublimation pressure ([1]; 243.2 K): 0.000296 ± 0.00013 kPa; vapor or sublimation pressure ([1]; 243.25 K): 0.000293 ± 0.00013 kPa; vapor or sublimation pressure ([1]; 248.2 K): 0.000569 ± 0.00014 kPa and 0.00056 ± 0.00014 kPa and 0.000564 ± 0.00014 kPa |
| C=CC(O)CCC (configuration not stated) [1-hexen-3-ol] | 0.007373 ± 0.00033 kPa and 0.007376 ± 0.00033 kPa | 0.01269 ± 0.00052 kPa and 0.0127 ± 0.0005 kPa and 0.01271 ± 0.00052 kPa | 0.0214 ± 0.0007 kPa and 0.02141 ± 0.00067 kPa | 0.03517 ± 0.00091 kPa and 0.03518 ± 0.00091 kPa | 0.05668 ± 0.0013 kPa and 0.05669 ± 0.0013 kPa and 0.05671 ± 0.0013 kPa |  | 0.08933 ± 0.0019 kPa and 0.08939 ± 0.0019 kPa | 0.1383 ± 0.0025 kPa and 0.1384 ± 0.0025 kPa | 0.2097 ± 0.0033 kPa and 0.2098 ± 0.0033 kPa | 0.3122 ± 0.0046 kPa and 0.3123 ± 0.0046 kPa | 0.4574 ± 0.0064 kPa and 0.4576 ± 0.0064 kPa | 0.6587 ± 0.0089 kPa and 0.6589 ± 0.0089 kPa | 0.9353 ± 0.012 kPa and 0.9355 ± 0.012 kPa | 235.9 ± 5.8 J/K/mol | 241 ± 5.9 J/K/mol | 246 ± 6 J/K/mol | 250.8 ± 6.1 J/K/mol | 255.5 ± 6.3 J/K/mol | 260.1 ± 6.4 J/K/mol | 264.8 ± 6.5 J/K/mol | molar heat capacity at constant pressure ([2]; 300 K): 269.3 ± 6.6 J/K/mol; molar heat capacity at constant pressure ([2]; 305 K): 273.6 ± 6.7 J/K/mol; molar heat capacity at constant pressure ([2]; 310 K): 277.6 ± 6.8 J/K/mol; molar heat capacity at constant pressure ([2]; 315 K): 281.6 ± 6.9 J/K/mol; molar heat capacity at constant pressure ([2]; 320 K): 285.4 ± 7 J/K/mol; molar heat capacity at constant pressure ([2]; 325 K): 289.1 ± 7.1 J/K/mol; molar heat capacity at constant pressure ([2]; 330 K): 292.5 ± 7.2 J/K/mol; molar heat capacity at constant pressure ([2]; 335 K): 295.4 ± 7.2 J/K/mol; molar heat capacity at constant pressure ([2]; 340 K): 298.2 ± 7.3 J/K/mol; molar heat capacity at constant pressure ([2]; 345 K): 301.2 ± 7.4 J/K/mol; molar heat capacity at constant pressure ([2]; 350 K): 303.8 ± 7.4 J/K/mol; molar heat capacity at constant pressure ([2]; 354.7 K): 305.5 ± 7.5 J/K/mol; vapor or sublimation pressure ([1]; 238.2 K): 0.001239 ± 0.00015 kPa and 0.001245 ± 0.00015 kPa and 0.001252 ± 0.00015 kPa; vapor or sublimation pressure ([1]; 243.15 K): 0.002307 ± 0.00017 kPa and 0.002309 ± 0.00017 kPa and 0.00231 ± 0.00017 kPa; vapor or sublimation pressure ([1]; 248.15 K): 0.004181 ± 0.00022 kPa; vapor or sublimation pressure ([1]; 248.2 K): 0.004188 ± 0.00022 kPa and 0.004193 ± 0.00022 kPa |
| CCC/C=C/CO [(E)-2-hexen-1-ol] | 0.001399 ± 0.00015 kPa and 0.001397 ± 0.00015 kPa | 0.002485 ± 0.00018 kPa and 0.002492 ± 0.00018 kPa and 0.002493 ± 0.00018 kPa | 0.004314 ± 0.00023 kPa and 0.004317 ± 0.00023 kPa and 0.004318 ± 0.00023 kPa | 0.007304 ± 0.00033 kPa and 0.00731 ± 0.00033 kPa and 0.007315 ± 0.00033 kPa | 0.01214 ± 0.0005 kPa | 0.01275 ± 0.00052 kPa and 0.01276 ± 0.00052 kPa | 0.01974 ± 0.00065 kPa and 0.01975 ± 0.00065 kPa | 0.03147 ± 0.00086 kPa and 0.03148 ± 0.00086 kPa | 0.04923 ± 0.0012 kPa and 0.04926 ± 0.0012 kPa and 0.04927 ± 0.0012 kPa | 0.07568 ± 0.0017 kPa and 0.07569 ± 0.0017 kPa | 0.1143 ± 0.0024 kPa | 0.1699 ± 0.0029 kPa | 0.2483 ± 0.004 kPa and 0.2484 ± 0.004 kPa | 211.9 ± 5.2 J/K/mol | 215.1 ± 5.3 J/K/mol | 218.4 ± 5.4 J/K/mol | 221.9 ± 5.4 J/K/mol | 225.4 ± 5.5 J/K/mol | 229.2 ± 5.6 J/K/mol | 233.3 ± 5.7 J/K/mol | molar heat capacity at constant pressure ([2]; 300 K): 237.2 ± 5.8 J/K/mol; molar heat capacity at constant pressure ([2]; 305 K): 241.3 ± 5.9 J/K/mol; molar heat capacity at constant pressure ([2]; 310 K): 245.3 ± 6 J/K/mol; molar heat capacity at constant pressure ([2]; 315 K): 249.5 ± 6.1 J/K/mol; molar heat capacity at constant pressure ([2]; 320 K): 253.6 ± 6.2 J/K/mol; molar heat capacity at constant pressure ([2]; 325 K): 257.8 ± 6.3 J/K/mol; molar heat capacity at constant pressure ([2]; 330 K): 261.9 ± 6.4 J/K/mol; molar heat capacity at constant pressure ([2]; 335 K): 265.6 ± 6.5 J/K/mol; molar heat capacity at constant pressure ([2]; 340 K): 269.5 ± 6.6 J/K/mol; molar heat capacity at constant pressure ([2]; 345 K): 273.3 ± 6.7 J/K/mol; molar heat capacity at constant pressure ([2]; 350 K): 276.9 ± 6.8 J/K/mol; molar heat capacity at constant pressure ([2]; 355 K): 280.1 ± 6.9 J/K/mol; vapor or sublimation pressure ([1]; 238.15 K): 0.000207 ± 0.00013 kPa and 0.00021 ± 0.00013 kPa and 0.000211 ± 0.00013 kPa; vapor or sublimation pressure ([1]; 243.15 K): 0.000404 ± 0.00013 kPa and 0.000406 ± 0.00013 kPa and 0.000407 ± 0.00013 kPa; vapor or sublimation pressure ([1]; 248.15 K): 0.000768 ± 0.00014 kPa and 0.000772 ± 0.00014 kPa |
| CC/C=C\CCO [(Z)-3-hexen-1-ol] | 0.001923 ± 0.00016 kPa and 0.001926 ± 0.00016 kPa and 0.001921 ± 0.00016 kPa | 0.003383 ± 0.0002 kPa and 0.003393 ± 0.0002 kPa and 0.003395 ± 0.0002 kPa | 0.005802 ± 0.00028 kPa and 0.005803 ± 0.00028 kPa and 0.005805 ± 0.00028 kPa | 0.009727 ± 0.00041 kPa and 0.009728 ± 0.00041 kPa and 0.009737 ± 0.00041 kPa |  | 0.01674 ± 0.00059 kPa | 0.02561 ± 0.00074 kPa and 0.02562 ± 0.00074 kPa and 0.02563 ± 0.00074 kPa | 0.04036 ± 0.001 kPa and 0.04037 ± 0.001 kPa | 0.06241 ± 0.0014 kPa and 0.06244 ± 0.0014 kPa | 0.09491 ± 0.002 kPa and 0.09494 ± 0.002 kPa and 0.09496 ± 0.002 kPa | 0.142 ± 0.0025 kPa | 0.2089 ± 0.0033 kPa and 0.209 ± 0.0033 kPa | 0.3032 ± 0.0044 kPa and 0.3034 ± 0.0044 kPa | 206.7 ± 5.1 J/K/mol | 210.2 ± 5.1 J/K/mol | 213.9 ± 5.2 J/K/mol | 217.6 ± 5.3 J/K/mol | 221.4 ± 5.4 J/K/mol | 225.4 ± 5.5 J/K/mol | 229.7 ± 5.6 J/K/mol | molar heat capacity at constant pressure ([2]; 300 K): 234 ± 5.7 J/K/mol; molar heat capacity at constant pressure ([2]; 305 K): 238.2 ± 5.8 J/K/mol; molar heat capacity at constant pressure ([2]; 310 K): 242.4 ± 5.9 J/K/mol; molar heat capacity at constant pressure ([2]; 315 K): 246.7 ± 6 J/K/mol; molar heat capacity at constant pressure ([2]; 320 K): 250.9 ± 6.1 J/K/mol; molar heat capacity at constant pressure ([2]; 325 K): 255.2 ± 6.3 J/K/mol; molar heat capacity at constant pressure ([2]; 330 K): 259.2 ± 6.3 J/K/mol; molar heat capacity at constant pressure ([2]; 335 K): 263.1 ± 6.4 J/K/mol; molar heat capacity at constant pressure ([2]; 340 K): 266.8 ± 6.5 J/K/mol; molar heat capacity at constant pressure ([2]; 345 K): 270.8 ± 6.6 J/K/mol; molar heat capacity at constant pressure ([2]; 350 K): 274.6 ± 6.7 J/K/mol; molar heat capacity at constant pressure ([2]; 355 K): 277.8 ± 6.8 J/K/mol; vapor or sublimation pressure ([1]; 238.15 K): 0.000301 ± 0.00013 kPa and 0.000303 ± 0.00013 kPa and 0.000304 ± 0.00013 kPa; vapor or sublimation pressure ([1]; 243.15 K): 0.000577 ± 0.00014 kPa and 0.000579 ± 0.00014 kPa and 0.00058 ± 0.00014 kPa; vapor or sublimation pressure ([1]; 248.15 K): 0.001062 ± 0.00014 kPa and 0.001066 ± 0.00014 kPa and 0.001069 ± 0.00014 kPa |
